Test results from patent US8008312B2, “CXCR4 antagonists for the treatment of HIV infection” (Emory University, priority 2005, dated 2011).
Where two headings read alike, the source gives them in different places.

Key:
Vrs-3 = experiment: Phenoscreen viral entry inhibition assay, Vrs-3; type: cell-based, HIV
Protocol: (§1) A selected set of compounds were tested for their ability to inhibit the cellular entry of T-tropic HIV. The assay for this inhibition has been carried out on a contractural basis at Monogram Biosciences, Inc. using their well established Phenoscreen™ assay. Briefly, HIV strains of interest are tagged with a luciferase indicator gene to create an appropriate test vector. The test vector is amplified through transfection and the resulting virus is incubated in the presence of target host cells where intracellular florescence activity then becomes a measure of infection. Amplified virus is exposed to target host cells in the presence of a range of test drug concentrations to determine IC50 measurements of entry inhibition. A modification of this test has been further reapplied as a novel drug assay that has been used in partnership with a number of pharmaceutical companies to test the effectiveness of novel entry inhibitors that target specific chemokines. It can used to detect activity against T-tropic, M-tropic, and dual-tropic viruses and Monogram Biosciences has a large bank of over 10,000 different virus strains to ultimately asses the range of applicability of our CXCR4 antagonists. Certain compounds have been tested to establish efficacy in a number of viral strains.

CXCR4 [1] = biological target: T1, CXCR4 (Homo sapiens, UniProt P61073); experiment: CXCR4 protein levels after treating cells; type: cell-based
T1 sequence (P61073 whole entry): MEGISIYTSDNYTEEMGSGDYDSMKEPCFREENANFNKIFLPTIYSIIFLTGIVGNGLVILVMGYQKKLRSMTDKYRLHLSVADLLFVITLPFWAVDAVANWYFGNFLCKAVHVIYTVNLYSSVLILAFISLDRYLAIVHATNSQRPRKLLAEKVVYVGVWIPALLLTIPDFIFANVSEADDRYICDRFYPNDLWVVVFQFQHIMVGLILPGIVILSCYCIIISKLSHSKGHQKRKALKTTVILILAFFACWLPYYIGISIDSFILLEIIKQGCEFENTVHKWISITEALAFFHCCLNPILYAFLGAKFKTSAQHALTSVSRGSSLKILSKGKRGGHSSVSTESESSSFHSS

Vrs-1 = experiment: Phenoscreen viral entry inhibition assay, Vrs-1; type: cell-based, HIV
Protocol: as §1

HXB2 = experiment: Phenoscreen viral entry inhibition assay, HXB2; type: cell-based, HIV
Protocol: as §1

Vrs-2 = experiment: Phenoscreen viral entry inhibition assay, Vrs-2; type: cell-based, HIV; conditions: Human immunodeficiency virus 1, read-out: Viral Entry Inhibition Vrs-2
Protocol: as §1

NL4-3 = experiment: Phenoscreen viral entry inhibition assay, NL4-3; type: cell-based, HIV
Protocol: as §1

CXCR4 [2] = biological target: T1, CXCR4; experiment: SDF-1 stimulated Erk1/2 phosphorylation; type: cell-based; conditions: SDF-1 stimulation; data not shown
Source text: CXCR4/SDF-1 interaction activates PI3K/Akt and Ras/Raf/MEK/Erk pathways in a Gas protein (PTX-sensitive)-dependent manner.

CXCR4 [3] = biological target: T1, CXCR4; experiment: SDF-1 stimulated phosphorylation of Akt in MDA-MB-231 cells; type: cell-based; conditions: 100 ng/ml SDF-1, 30 minutes; FIG. 2
Protocol: FIG. 2 is an image of a western blot showing phosphorylation of Akt. Incubating MDA-MB-231 cells with 100 ng/ml of SDF-1 for 30 min stimulated phosphorylation of Akt. This activation was blocked with TN14003 or AMD3100 in a dose-dependent manner.
CXCR4/SDF-1 interaction activates PI3K/Akt and Ras/Raf/MEK/Erk pathways in a Gas protein (PTX-sensitive)-dependent manner. Experiments were conducted to determine the effect of blocking CXCR4/SDF-1 interaction by either TN14003 or AMD3100 at different concentrations (0, 0.01, 0.1, 1, 10, 100, 1000 nM) on phosphorylations of Akt and Erk1/2 signaling. Incubating cells with 100 ng/ml of SDF-1 for 30 minutes activated Akt. […] However, the increase in Erk1/2 phosphorylation by SDF-1 was not significant as the increase in Akt phosphorylation.

Dual = experiment: Phenoscreen viral entry inhibition assay, Dual; type: cell-based, HIV; conditions: Human immunodeficiency virus 1, read-out: Viral Entry Inhibition Dual
Protocol: as §1

SHIV = experiment: Phenoscreen viral entry inhibition assay, SHIV; type: cell-based
Protocol: as §1

MDA-MB-231 cells = experiment: Cell viability of MDA-MB-231 cells; type: cell-based; conditions: even at 100 μM (the highest concentration tested)
CXCR4 [4] = biological target: T1, CXCR4; experiment: Competition assay using biotin-labeled TN14003 on tumor cells; type: binding; conditions: FIG. 5, cells pre-incubated with various concentrations; read-out: IC50 (biotin-labeled TN14003 detection of CXCR4 after pre-incubation)
Protocol: Biotin-labeled TN14003 was used to detect CXCR4 protein from the cells pre-incubated with various concentrations of WZZL811S.
Using biotin-labeled TN14003 along with streptavidin-conjugated rhodamine allowed a determination of the binding efficiency of these chemicals to the SDF-1 binding site of CXCR4 on tumor cells and compared it to AMD3100-SDF-1 interactions (FIG. 4). […] Cells were pre-incubated with different concentrations of AMD3100. […] Therefore, one of these compounds, WZZL811S, was selected to study its therapeutic potential based on potency and low toxicity to cells (FIG. 6).

CXCR4 [5] = biological target: T1, CXCR4; experiment: Competition screening using the native CXCR4 ligand SDF-1; type: binding; conditions: competition with SDF-1
Half-life in mice = conditions: mouse, in vivo, read-out: t1/2 (min) in mice
MT-4 cells = conditions: cited from earlier work
[6] = Human immunodeficiency virus 1, read-out: Viral Entry Inhibition Vrs-3
[7] = Human immunodeficiency virus 1, read-out: Viral Entry Inhibition Vrs-1
[8] = Human immunodeficiency virus 1, HXB2, read-out: Viral Entry Inhibition HXB2
[9] = Human immunodeficiency virus 1, NL43, read-out: Viral Entry Inhibition NL4-3

## C1=CC(CN2CCCNCCNCCCNCC2)CC=C1CN1CCCNCCNCCCNCC1 (stereo not drawn) [AMD3100, reference compound]
Vrs-3; [6]
  IC50: 0.043 µM
CXCR4 [1]
  effect on CXCR4 protein levels: did not affect CXCR4 protein levels
Vrs-1; [7]
  IC50: 0.013 µM
HXB2; [8]
  IC50: 0.013 µM
Vrs-2
  IC50: 0.015 µM
NL4-3; [9]
  IC50: 0.008 µM
CXCR4 [2]
  concentration attenuating Erk1/2 phosphorylation: 100 nM
CXCR4 [3]
  concentration blocking Akt activation: a few nano molar
Dual
  IC50: 0.03 µM
SHIV
  IC50: 0.013 µM

## c1cnc(NCc2ccc(CNc3ncccn3)cc2)nc1 [WZ-40-MS]
Vrs-3; [6]
  IC50: > 15 µM
Vrs-1; [7]
  IC50: > 15 µM
HXB2; [8]
  IC50: > 15 µM
Vrs-2
  IC50: ~10 µM
NL4-3; [9]
  IC50: > 15 µM
Dual
  IC50: > 15 µM
SHIV
  IC50: ~12 µM

## OCc1ccc(CNc2ncccn2)cc1 [WZ-41]
Vrs-3; [6]
  IC50: > 15 µM
Vrs-1; [7]
  IC50: > 15 µM
HXB2; [8]
  IC50: > 15 µM
Vrs-2
  IC50: ~13 µM
NL4-3; [9]
  IC50: > 15 µM
Dual
  IC50: > 15 µM
SHIV
  IC50: ~15 µM

## c1ccc(NCc2cccc(CNc3ccccn3)c2)nc1 [WZ-48-S]
Vrs-3; [6]
  IC50: > 15 µM
Vrs-1; [7]
  IC50: > 15 µM
HXB2; [8]
  IC50: > 15 µM
Vrs-2
  IC50: ~11 µM
NL4-3; [9]
  IC50: > 15 µM
Dual
  IC50: > 15 µM
SHIV
  IC50: ~11 µM

## Fc1ccccc1NCc1ccc(CNc2ccccc2F)cc1 [WZ-51]
Vrs-3; [6]
  IC50: ~10 µM
Vrs-1; [7]
  IC50: ~10 µM
HXB2; [8]
  IC50: > 15 µM
Vrs-2
  IC50: ~10 µM
NL4-3; [9]
  IC50: ~12 µM
Dual
  IC50: ~12 µM
SHIV
  IC50: 1.42 µM

## c1ccc(NCc2ccc(CNc3ncccn3)cc2)cc1 [WZ-67]
Vrs-3; [6]
  IC50: ~12 µM
Vrs-1; [7]
  IC50: > 15 µM
HXB2; [8]
  IC50: > 15 µM
Vrs-2
  IC50: ~11 µM
NL4-3; [9]
  IC50: ~11 µM
Dual
  IC50: > 15 µM
SHIV
  IC50: ~10 µM

## COc1ccnc(NCc2ccc(CNc3nccc(OC)n3)cc2)n1 [WZ-72-S]
Vrs-3; [6]
  IC50: > 15 µM
Vrs-1; [7]
  IC50: > 15 µM
HXB2; [8]
  IC50: > 15 µM
Vrs-2
  IC50: ~12 µM
NL4-3; [9]
  IC50: ~15 µM
Dual
  IC50: > 15 µM
SHIV
  IC50: 4.44 µM

## COc1cccc(NCc2ccc(CNc3cccc(OC)c3)cc2)c1 [WZ-77]
Vrs-3; [6]
  IC50: > 15 µM
Vrs-1; [7]
  IC50: > 15 µM
HXB2; [8]
  IC50: > 15 µM
Vrs-2
  IC50: ~11 µM
NL4-3; [9]
  IC50: ~14 µM
Dual
  IC50: > 15 µM
SHIV
  IC50: 8.96 µM

## c1ccc(NCc2cccc(CNc3ccccc3)c2)cc1 [WZ-814-S]
Vrs-3; [6]
  IC50: ~11 µM
Vrs-1; [7]
  IC50: ~11 µM
HXB2; [8]
  IC50: ~15 µM
Vrs-2
  IC50: ~11 µM
NL4-3; [9]
  IC50: ~11 µM
Dual
  IC50: > 15 µM
SHIV
  IC50: > 15 µM

## c1ccc(CNCc2ccc(CNCc3ccccc3)cc2)cc1 [WZ-8224]
Vrs-3; [6]
  IC50: 5.72 µM
Vrs-1; [7]
  IC50: 4.78 µM
HXB2; [8]
  IC50: 8.08 µM
Vrs-2
  IC50: 4.31 µM
NL4-3; [9]
  IC50: 6.37 µM
Dual
  IC50: 6.25 µM
SHIV
  IC50: 1.7 µM

## CC(Nc1ccccc1)c1ccc(C(C)Nc2ccccc2)cc1 (stereo not drawn) [WZ-8225]
Vrs-3; [6]
  IC50: ~10 µM
Vrs-1; [7]
  IC50: ~11 µM
HXB2; [8]
  IC50: ~11 µM
Vrs-2
  IC50: ~10 µM
NL4-3; [9]
  IC50: ~10 µM
Dual
  IC50: > 15 µM
SHIV
  IC50: ~10 µM

## Cc1cc(CNc2ccccc2)c(C)cc1CNc1ccccc1 [WZ-9103]
Vrs-3; [6]
  IC50: ~15 µM
Vrs-1; [7]
  IC50: > 15 µM
HXB2; [8]
  IC50: ~13 µM
Vrs-2
  IC50: ~15 µM
NL4-3; [9]
  IC50: ~11 µM
Dual
  IC50: > 15 µM
SHIV
  IC50: 9.5 µM

## c1ccc(NCc2ccc(CNc3ccccc3)cc2)cc1 [WZ-81810]
Vrs-3; [6]
  IC50: > 15 µM
Vrs-1; [7]
  IC50: > 15 µM
HXB2; [8]
  IC50: > 15 µM
Vrs-2
  IC50: ~10 µM
NL4-3; [9]
  IC50: > 15 µM
Dual
  IC50: > 15 µM
SHIV
  IC50: ~12 µM

## c1ccc(NCc2ccc(CNc3ccccn3)cc2)nc1 [WZZL811S]
Vrs-3; [6]
  IC50: > 15 µM
Vrs-1; [7]
  IC50: > 15 µM
MDA-MB-231 cells
  cell viability of MDA-MB-231 cells: did not decrease cell viability
HXB2; [8]
  IC50: > 15 µM
Vrs-2
  IC50: ~12 µM
CXCR4 [4]
  IC50: < 0.001 µM
NL4-3; [9]
  IC50: > 15 µM
Dual
  IC50: > 15 µM
SHIV
  IC50: > 15 µM

## c1ccc(NCc2ccc(CNc3ccccn3)cc2)nc1 [drawing 204]
CXCR4 [5]
  IC50: < 10 nM

## c1cnc(NCc2ccc(CNc3ncccn3)cc2)nc1 [drawing 205]
CXCR4 [5]
  IC50: < 10 nM
Half-life in mice
  half-life: 45 min

## OCc1ccc(CNc2ncccn2)cc1 [drawing 206]
CXCR4 [5]
  IC50: < 10 nM

## c1ccc(NCc2ccc(CNc3ccccc3)cc2)cc1 [drawing 208]
CXCR4 [5]
  IC50: < 10 nM
Half-life in mice
  half-life: 11 min

## c1ccc(NCc2cccc(CNc3ccccc3)c2)cc1 [drawing 209]
CXCR4 [5]
  IC50: < 10 nM
Half-life in mice
  half-life: < 5 min

## c1ccc(CNCc2ccc(CNCc3ccccc3)cc2)cc1 [drawing 210]
CXCR4 [5]
  IC50: < 100 nM

## CC(Nc1ccccc1)c1ccc(C(C)Nc2ccccc2)cc1 (stereo not drawn) [drawing 211]
CXCR4 [5]
  IC50: < 100 nM
Half-life in mice
  half-life: 13.7 min

## Cc1cc(CNc2ccccc2)c(C)cc1CNc1ccccc1 [drawing 212]
CXCR4 [5]
  IC50: > 100 nM

## Fc1ccccc1NCc1ccc(CNc2ccccc2F)cc1 [drawing 213]
CXCR4 [5]
  IC50: < 10 nM

## c1ccc(NCc2ccc(CNc3ncccn3)cc2)cc1 [drawing 214]
Half-life in mice
  half-life: 14 min

## COc1ccnc(NCc2ccc(CNc3nccc(OC)n3)cc2)n1 [drawing 215]
CXCR4 [5]
  IC50: 10 nM

## COc1cccc(NCc2ccc(CNc3cccc(OC)c3)cc2)c1 [drawing 216]
CXCR4 [5]
  IC50: 1 nM
Half-life in mice
  half-life: 14.3 min

## TN14003 [reference compound]
Vrs-3; Vrs-3 strain, read-out: Viral Entry Inhibition Vrs-3
  IC50: 0.025 µM
CXCR4 [1]
  effect on CXCR4 protein levels: did not affect CXCR4 protein levels
Vrs-1; Vrs-1 strain, read-out: Viral Entry Inhibition Vrs-1
  IC50: 0.01 µM
HXB2; HXB2 strain, read-out: Viral Entry Inhibition HXB2
  IC50: 0.01 µM
NL4-3; NL4-3 strain, read-out: Viral Entry Inhibition NL4-3
  IC50: 0.005 µM
CXCR4 [2]
  concentration attenuating Erk1/2 phosphorylation: sub-nano molar concentration
CXCR4 [3]
  concentration blocking Akt activation: sub-nano molar concentration
SHIV; SHIV
  IC50: 0.007 µM
MT-4 cells
  concentration leading to 50% toxicity: 410 µM
